Measurements: PubChem BioAssay AID1259408 (Genetic Toxicology Data Bank (GENE-TOX), 2018)
The source made the active and inactive calls. The rule behind the calls is not given here.

Test system: GENE-TOX genotoxicity assays, various organisms and cells
Assay: GENE-TOX mutagenicity studies
Details: for call: Assay Type: In vivo carcinogenicity studies
[1] = Species/Cell Type: Bacillus subtilis (H17 vs M45), Assay Type: Rec-assay, spot test, DNA effects (bacterial DNA repair), Assay Code: REWT, Evaluation Type: Evaluation A (Pre-1980)
[2] = Species/Cell Type: Nonhuman, Assay Code: CCG-, Evaluation Type: Evaluation A (Pre-1980)
[3] = Species/Cell Type: Salmonella typhimurium, Assay Type: Forward and reverse gene mutation, host-mediated assay, Assay Code: HMA+, Evaluation Type: Evaluation A (Pre-1980)
[4] = Species/Cell Type: Bacillus subtilis (H17 vs M45), Assay Type: Rec-assay, spot test, DNA effects (bacterial DNA repair), Assay Code: REW-, Evaluation Type: Evaluation A (Pre-1980)
[5] = Species/Cell Type: Bacillus subtilis (H17 vs M45T), Assay Type: Rec-assay, spot test, DNA effects (bacterial DNA repair), Assay Code: REXT, Evaluation Type: Evaluation A (Pre-1980)
[6] = Species/Cell Type: Drosophila melanogaster, Assay Type: Sex-linked recessive lethal gene mutation, Assay Code: SRLT, Evaluation Type: Evaluation A (Pre-1980)
[7] = Species/Cell Type: Escherichia coli WP2, Assay Type: Tryptophan reverse gene mutation, Assay Code: WP2-, Evaluation Type: Evaluation A (Pre-1980)
[8] = Species/Cell Type: Rodents, Sex: Male, Assay Type: Dominant lethal test, Assay Code: DLT+, Evaluation Type: Evaluation A (Pre-1980)
[9] = Species/Cell Type: Salmonella typhimurium (one or more of the five standard strains: TA98, TA100, TA1535, TA1537, and TA1538), Assay Type: Histidine reverse gene mutation, Ames assay, Assay Code: SAL-, Evaluation Type: Evaluation A (Pre-1980)
[10] = Species/Cell Type: Salmonella typhimurium (one or more of the five standard strains: TA98, TA100, TA1535, TA1537, and TA1538), Assay Type: Histidine reverse gene mutation, Ames assay, Assay Code: SAL+, Evaluation Type: Evaluation A (Pre-1980)
[11] = Species/Cell Type: Syrian hamster embryo (SA7/SHE) cells, Assay Type: Cell transformation, viral enhanced, Assay Code: CT7+, Evaluation Type: Evaluation A (Pre-1980)
[12] = Species/Cell Type: Salmonella typhimurium (one or more of the five standard strains: TA98, TA100, TA1535, TA1537, and TA1538), Assay Type: Histidine reverse gene mutation, Ames assay, Assay Code: SALT, Evaluation Type: Evaluation A (Pre-1980)
[13] = Species/Cell Type: Saccharomyces cerevisiae, Assay Type: Mitotic recombination or gene conversion, Assay Code: YEC-, Evaluation Type: Evaluation A (Pre-1980)
[14] = Species/Cell Type: Saccharomyces cerevisiae, Assay Type: Reverse gene mutation, Assay Code: YER+, Evaluation Type: Evaluation A (Pre-1980)

O=Nc1c([O-])ccc2cc(S(=O)(=O)[O-])ccc12.O=Nc1c([O-])ccc2cc(S(=O)(=O)[O-])ccc12.O=Nc1c([O-])ccc2cc(S(=O)(=O)[O-])ccc12.[Fe+3].[Na+].[Na+].[Na+]
mutagenic call [1]: no conclusion

CCN(CC)C(=S)SSC(=S)N(CC)CC
mutagenic call (Species/Cell Type: Mammalian polychromatic erythrocytes, Assay Type: Micronucleus test, chromosome aberrations, Assay Code: MNTT, Evaluation Type: Evaluation B (Post-1980)): no conclusion
call [2]: inactive; negative

CN1C(C(=O)Nc2ccccn2)=C(O)c2ccccc2S1(=O)=O
mutagenic call (Species/Cell Type: Human lymphocytes, Assay Type: Sister-chromatid exchange (SCE) in vivo, Assay Code: SCY+, Evaluation Type: Evaluation B (Post-1980)): active; positive

O=C(CCN1CCCCC1)c1ccc2c(c1)OCO2
mutagenic call [3]: active; positive

NNC(=O)NC(=O)NN
mutagenic call (Species/Cell Type: Escherichia coli WP2, Assay Type: Tryptophan reverse gene mutation, Assay Code: WP2+, Evaluation Type: Evaluation A (Pre-1980)): active; positive

COc1ccc2nc3cc(Cl)ccc3c(NCCCSCCCl)c2n1
mutagenic call (Species/Cell Type: Chinese hamster ovary (CHO) cells, Assay Type: Forward gene mutation at the HPRT locus, Assay Code: CHO+, Evaluation Type: Evaluation B (Post-1980)): active; positive

C/C=C1/C[C@@H](C)[C@@](C)(O)C(=O)OC/C2=C/CN(C)CC[C@@H](OC1=O)C2=O
mutagenic call (Species/Cell Type: Nonhuman, Assay Type: Sister-chromatid exchange (SCE) in vitro, Assay Code: SC2+D, Dose Response: With dose response, Evaluation Type: Evaluation B (Post-1980)): active; positive

O=C(N[C@H](CO)[C@H](O)c1ccc([N+](=O)[O-])cc1)C(Cl)Cl
mutagenic call (Species/Cell Type: Arabidopsis species, Assay Type: Gene mutation, Assay Code: ARM-, Evaluation Type: Evaluation A (Pre-1980)): inactive; negative
mutagenic call [4]: inactive; negative
mutagenic call [5]: no conclusion
mutagenic call [6]: no conclusion
mutagenic call [7]: inactive; negative
mutagenic call (Species/Cell Type: Escherichia coli polA (W3110 vs P3478), Assay Type: Rec-assay, DNA effects (bacterial DNA repair), Assay Code: RE2-, Evaluation Type: Evaluation A (Pre-1980)): inactive; negative
mutagenic call (Species/Cell Type: Escherichia coli polA (W3119 vs P3478), Assay Type: Rec-assay, DNA effects (bacterial DNA repair), Assay Code: RE1-, Evaluation Type: Evaluation A (Pre-1980)): inactive; negative
call (Species/Cell Type: Nonhuman, Assay Code: CCGT, Evaluation Type: Evaluation A (Pre-1980)): no conclusion
mutagenic call [8]: active; positive
mutagenic call [9]: inactive; negative

[Cl][Zn][Cl]
mutagenic call [4]: inactive; negative
mutagenic call (Species/Cell Type: Human lymphocytes or leukocytes, Assay Type: Chromosome aberrations in vitro, Assay Code: CY7-, Evaluation Type: Evaluation A (Pre-1980)): inactive; negative
mutagenic call (Species/Cell Type: Mouse, Sex: Male, Assay Type: Sperm morphology, Assay Code: SPI-, Evaluation Type: Evaluation A (Pre-1980)): inactive; negative
mutagenic call [10]: active; positive
mutagenic call [3]: active; positive
mutagenic call [11]: active; positive

OCC(c1ccc(Cl)cc1)c1ccc(Cl)cc1
mutagenic call [6]: no conclusion

CC(=O)Nc1nc(-c2csc(NC(C)=O)n2)cs1
mutagenic call [12]: no conclusion

COc1cccc2c1C(=O)c1c(O)c3c(c(O)c1C2=O)C[C@@](O)(C(C)=O)C[C@@H]3O[C@@H]1C[C@@H](N(C)C)[C@@H](O)[C@@H](C)O1
mutagenic call [12]: no conclusion

O=S(=O)(O)c1ccc(N=Nc2c(O)ccc3cc(S(=O)(=O)O)ccc23)cc1
mutagenic call [1]: no conclusion
mutagenic call [5]: no conclusion
call [2]: inactive; negative
mutagenic call (Species/Cell Type: Nonhuman, Assay Type: Sister-chromatid exchange (SCE) in vitro, Assay Code: SC2T, Evaluation Type: Evaluation A (Pre-1980)): no conclusion
mutagenic call [13]: inactive; negative
mutagenic call [9]: inactive; negative

CCCCCCCC(=O)OCC(COC(=O)CCCCCCC)OC(=O)CCCCCCC
mutagenic call (Species/Cell Type: Mouse, Sex: Female, Assay Type: Spot test, gene mutation, Assay Code: MSTT, Evaluation Type: Evaluation A (Pre-1980)): no conclusion

Nc1nc(N)c2nc(CNc3ccc(C(=O)N[C@@H](CCC(=O)O)C(=O)O)cc3)cnc2n1
mutagenic call (Species/Cell Type: Mammalian polychromatic erythrocytes, Assay Type: Micronucleus test, chromosome aberrations, Assay Code: MNT+, Evaluation Type: Evaluation A (Pre-1980)): active; positive
mutagenic call (Species/Cell Type: Mouse, Sex: Male, Assay Type: Sperm morphology, Assay Code: SPI+, Evaluation Type: Evaluation A (Pre-1980)): active; positive
mutagenic call (Species/Cell Type: Neurospora crassa, Assay Type: Aneuploidy, chromosome aberrations, Assay Code: NEN-, Evaluation Type: Evaluation A (Pre-1980)): inactive; negative
mutagenic call (Species/Cell Type: Saccharomyces cerevisiae, Assay Type: Mitotic recombination or gene conversion, Assay Code: YEH+, Evaluation Type: Evaluation A (Pre-1980)): active; positive

Cc1cccc(C2CO2)c1 (stereo not drawn)
mutagenic call (Species/Cell Type: Escherichia coli WP2 UVRA, Assay Type: Tryptophan reverse gene mutation, Assay Code: WPU+D, Dose Response: With dose response, Evaluation Type: Evaluation A (Pre-1980)): active; positive

O=NN(CCO)CCCCO
mutagenic call (Species/Cell Type: Salmonella typhimurium (one or more of the five standard strains: TA98, TA100, TA1535, TA1537, and TA1538), Assay Type: Histidine reverse gene mutation, Ames assay, Assay Code: SAL+*, Activation: With metabolic activation, Evaluation Type: Evaluation A (Pre-1980)): active; positive

N#CCC(=O)N/N=C/c1c[n+]([O-])c2ccccc2[n+]1[O-]
mutagenic call (Species/Cell Type: Mammalian polychromatic erythrocytes, Assay Type: Micronucleus test, chromosome aberrations, Assay Code: MNT+, Evaluation Type: Evaluation B (Post-1980)): active; positive

Cl/C=C\CCl
mutagenic call [10]: active; positive

C=[N+]=[N-]
mutagenic call (Species/Cell Type: Neurospora crassa, Assay Type: Reverse gene mutation, Assay Code: NER+, Evaluation Type: Evaluation A (Pre-1980)): active; positive
call (Species/Cell Type: Nonhuman, Assay Code: CCG+L, Evaluation Type: Evaluation A (Pre-1980)): active; positive
mutagenic call [14]: active; positive

COC(=O)Nc1cccc(OC(=O)Nc2cccc(C)c2)c1
mutagenic call (Species/Cell Type: Aspergillus nidulans, Assay Type: Aneuploidy, chromosome aberrations, Assay Code: ASN+, Evaluation Type: Evaluation A (Pre-1980)): active; positive
mutagenic call [13]: inactive; negative

COc1cc(-c2ccc(-[n+]3nc(-c4ccccc4)nn3-c3ccc([N+](=O)[O-])cc3)c(OC)c2)ccc1-[n+]1nc(-c2ccccc2)nn1-c1ccc([N+](=O)[O-])cc1
mutagenic call [5]: no conclusion

O[As](O)O
mutagenic call [7]: inactive; negative
mutagenic call (Species/Cell Type: Human lymphocytes or leukocytes, Assay Type: Chromosome aberrations in vitro, Assay Code: CY7+, Evaluation Type: Evaluation A (Pre-1980)): active; positive

Nc1ccc(Oc2ccc(N)cc2)cc1
call (Species/Cell Type: Nonhuman, Assay Code: CCG+, Evaluation Type: Evaluation A (Pre-1980)): active; positive
mutagenic call (Species/Cell Type: Nonhuman, Assay Type: Sister-chromatid exchange (SCE) in vivo, Assay Code: SC3T, Evaluation Type: Evaluation B (Post-1980)): no conclusion

CC[C@@H](CO)NC(=O)[C@@H]1C=C2c3cccc4c3c(cn4C)C[C@H]2N(C)C1
mutagenic call [8]: active; positive

COC1=C(OC)C(=O)C(C/C=C(\C)CC/C=C(\C)CC/C=C(\C)CC/C=C(\C)CC/C=C(\C)CC/C=C(\C)CCC=C(C)C)=C(C)C1=O
mutagenic call (Species/Cell Type: Human, Sex: Male, Assay Type: Sperm morphology, Assay Code: SPHT, Evaluation Type: Evaluation A (Pre-1980)): no conclusion

Cc1cc2ccccc2cn1
mutagenic call [12]: no conclusion

C1CN1P1(N2CC2)=NP(N2CC2)(N2CC2)=NP(N2CC2)(N2CC2)=N1
mutagenic call (Species/Cell Type: Neurospora crassa, Assay Type: Forward gene mutation, Assay Code: NEF+, Evaluation Type: Evaluation A (Pre-1980)): active; positive
mutagenic call (Species/Cell Type: Nonhuman, Assay Type: Sister-chromatid exchange (SCE) in vivo, Assay Code: SC3+, Evaluation Type: Evaluation B (Post-1980)): active; positive

CN(N=O)C(=O)C(=O)N(C)N=O
mutagenic call (Species/Cell Type: Arabidopsis species, Assay Type: Gene mutation, Assay Code: ARM+, Evaluation Type: Evaluation A (Pre-1980)): active; positive
mutagenic call [14]: active; positive

Cn1c([N+](=O)[O-])cnc1/C=N/N1CC(CN2CCOCC2)OC1=O (stereo not drawn)
mutagenic call [6]: no conclusion
mutagenic call (Species/Cell Type: Mouse, Sex: Female, Assay Type: Spot test, gene mutation, Assay Code: MST+, Evaluation Type: Evaluation A (Pre-1980)): active; positive
mutagenic call [13]: inactive; negative

CC(=O)[O-].[Tl+]
mutagenic call [11]: active; positive
